The source of these data is patent publication US6331287A, “2'-deoxy-2'-fluoro-d-arabinofuranosyl pyrimidine nucleoside” (University Advanced Bio-imaging Associates, priority 1998, dated 2001).

The conditions of data set [1]: cited from earlier work.
The next data set deals with host DNA. The conditions noted are these: cited from earlier work.
Data set [2] has as its system organs with rapidly dividing cells such as the small intestine and spleen. The conditions noted are these: rats; cited from earlier work.
The subject of a further data set is PC12 cells. As to conditions: in culture; cited from earlier work.
In the next data set the test system is Vero cells. As to conditions: in culture; cited from earlier work.
The conditions of data set [3]: mice, cited from earlier work.
The conditions of data set [4]: rats, cited from earlier work.
For data set [5] the following is noted: dogs, cited from earlier work.
The nature of data set [6]: Storage stability of compound 2. The class given is physicochemical. As to conditions: after flash chromatography, anhydrous conditions. On the procedure:
After purification by flash chromatography compound 2 could be stored at room temperature for at least 10 months under anhydrous conditions. Its melting point was broad due to the fact that a mixture of four diastereomers were probably present. Treatment of compound 2 with n-butyllithium (2.5 equivalent) produced the dianion 3 in situ which was treated with either unlabeled or [^11 C]-methyl iodide to produce the methylated product 4. The major by-product in the methylation reaction was the dehalogenated compound 5. The ratio of the desired product to the by-product was 43:57, as determined by ^1 HNMR integration of the C6 hydrogen. Deprotection of the tetrahydropyranyl ether produced the desired compound FMAU in 82% chemical yield.

Data set [7] can be described thus: Plasma clearance of [^11 C]FMAU or [^11 C]TdR after intravenous bolus in dogs (FIG. 1). Format: in vivo. As to conditions: dog; for plasma clearance: intravenous.
Data set [8] in a line: HPLC analysis of plasma samples for radiolabeled metabolites in dogs. The conditions noted are these: dog, FMAU over 90 minutes. The class given is in vivo.
Data set [9] deals with brain tumor (gliosarcoma). The conditions noted are these: dogs not infected by herpes simplex virus, PET.
The next data set has as its system thymidine incorporation. The conditions noted are these: read-out: ED50 for inhibition of thymidine incorporation; cited from earlier work. In general terms: Dividing cells build labelled thymidine or BrdU into new DNA.
The next data set relates to mammalian kinases. The conditions noted are these: relative to thymidine, cell culture systems; cited from earlier work.
A further data set deals with viral kinases. As to conditions: relative to thymidine, cell culture systems; cited from earlier work.
For data set [10] the following is noted: patients, Phase I; cited from earlier work.
For data set [11] the following is noted: dogs; cited from earlier work.
The mark [12] stands for this setting: intravenous, through 24 hours, HPLC.
Setting [13] is: intravenous bolus 20-25 mCi, 50-100 Ci/mmol, two components of approximately equal amplitudes.

“Also recorded” adds a separate entry of the source. Like-named read-outs stand apart in the source and are kept apart here.

With `O=c1[nH]c(=O)n([C@H]2C[C@H](O)[C@@H](CO)O2)cc1[131I]` [radioiodinated IUdR], the “dehalogenation / deiodination in vivo” value in data set [1] is “significant dehalogenation”.

In the case of `Cc1cn([C@@H]2O[C@H](CO)[C@@H](O)[C@@H]2F)[14c](=O)[nH]c1=O` [[2-^14 C]-FMAU], in the data set with host DNA, the “incorporation into host DNA” value is reported as “substantial incorporation”. Moreover, the “accumulation in small intestine and spleen” value in data set [2] is recorded as “preferentially observed”. For the same molecule, in the data set with PC12 cells, the “accumulation in proliferating PC12 cells” value is on record as “preferentially observed”. The “accumulation in proliferating Vero cells” value with Vero cells is on record as “preferentially observed”. Also, the “composition of urine radioactivity” value in [3] (setting [12]), in data set [4] (setting [12]) and in data set [5] (setting [12]) was “primarily of unchanged parent compound” each time. In addition, the “injected radioactivity cleared into the urine” value in data set [3] (intravenous), in data set [4] (intravenous) and in data set [5] (intravenous) was “Nearly all” in each case. The figures for the “four minor metabolites, share of total urine radioactivity” value in [3] (urine at 24 hr), in data set [4] (urine at 24 hr) and in [5] (urine at 24 hr) were less than 15%, less than 5% and “less than 3%”, respectively.

As to `O=c1[nH]c(=O)n([C@@H]2O[C@H](COC3CCCCO3)[C@@H](OC3CCCCO3)[C@@H]2F)cc1I` (stereo partly drawn) [compound 2, 3', 5'-O-bis-(tetrahydropyranyl)-2'-fluoro-5-iodo-1-β-D-arabino-furanosyluracil], in [6], the “storage stability at room temperature” value is “at least 10 months”.

Turning to `Nc1nc(=O)n([C@@H]2O[C@H](CO)[C@@H](O)[C@@H]2F)cc1[125I]` [[^125 I] labeled FIAC, [^125 I]2'-fluoro-5-iodo-1-β-D-arabinofuranosyl-cytosine], the “dehalogenation / deiodination in vivo” value in data set [1] is listed as “extensive deiodination in vivo”.

For `O=c1[nH]c(=O)n([C@@H]2O[C@H](CO)[C@@H](O)[C@@H]2F)cc1I` [FIAU, 2'-Fluoro-5-iodo-1-β-D-arabinofuranosyluracil], the “dehalogenation / deiodination in vivo” value in data set [1] is reported as “deiodination followed by methylation at the 5 position of the base also can occur prior to DNA incorporation”.

Regarding `[11CH3]c1cn([C@@H]2O[C@H](CO)[C@@H](O)[C@@H]2F)c(=O)[nH]c1=O` [[^11 C]FMAU, 2'-fluoro-5-[^11 C-methyl]-1-β-D-arabinofuranosyluracil], the plasma clearance result in [7] is reported as “rapid plasma clearance”. In data set [7] (setting [13]), the “half time of first exponential component of plasma activity concentration curve” value amounted to 2.4 min and the “half time of second exponential component of plasma activity concentration curve” value stood at 63 min. The plasma clearance result in data set [7] (listed as [^11 C] FMAU) was “rapid clearance”. The “radiolabeled metabolites in plasma” value in [8] is given as “no radiolabeled metabolites”. In addition, the “localization in brain tumor / tumor visualization” value in [9] was “localized selectively within the proliferating cells of brain tumors, but not in normal brain cells; also recorded: the tumor was well visualized; also recorded: accumulated within brain tumor cells that were not infected with herpes simplex virus”.

As for `Cc1cn([C@@H]2O[C@H](CO)[C@@H](O)[C@@H]2F)c(=O)[nH]c1=O` [FMAU, 2'-fluoro-5-methyl-1-β-D-arabinofuranosyluracil], the IC50 in the data set on thymidine incorporation is 8 to 28 µM. Moreover, the “phosphorylation by mammalian kinases” value in the data set with mammalian kinases is given as “phosphorylated by mammalian kinases to levels approaching that of thymidine; also recorded: good substrate relative to thymidine”. The “phosphorylation by viral kinases” value in the data set on viral kinases is “good substrate relative to thymidine”. Also, the “glucuronide adduct of FMAU among trace metabolites” value in data set [5] (urine, present in all three species) was “most abundant in dogs”. The “dose above which significant dose-limiting neurotoxicity developed” value in data set [10] is on record as “above 8 mg/m^2×5 days”. In [11], the LD10 is 25 mg/m^2×10 days.

On to `[11CH3]c1cn([C@H]2CC(O)[C@@H](CO)O2)c(=O)[nH]c1=O` (stereo partly shown) [[^11 C]TdR], for which the plasma clearance entry in data set [7] is reported as “rapid plasma clearance”. Further, the “radiolabeled metabolites in plasma” value in data set [8] is reported as “progressive rise in radiolabeled metabolites”.
